Values of other authors, collected in patent publication US11351151B2, “Compound having anticancer activity and preparation method and application” (3D Medicines (Beijing) Co., Ltd., priority 2016, dated 2022).

Conditions: liver cancer patients, phase III; cited from earlier work

CNC(=O)c1cc(Oc2ccc(NC(=O)Nc3ccc(Cl)c(C(F)(F)F)c3)cc2)ccn1 [Sorafenib]
ORR (overall response rate): 6.9%
TTP (time to progression): 4.0 months
